# Patent US11440909B2, “10H-phenothiazine ferroptosis inhibitor as well as the preparative method and the use thereof” (CHENGDU HENGHAO INVESTMENT CO. LIMITED, priority 2018, dated 2022)
# Test system: fibrosarcoma cell line HT1080
# Assay: Ferroptosis screening model (MTT method), Erastin-induced ferroptosis
# Type: cell-based, human
# Settings: HT1080, ferroptosis inducer Erastin, 72 h, average of three tests, read-out: EC50
# Method: The screening model for ferroptosis mainly used MTT method. First, the fibrosarcoma cell line HT1080 was cultured in a dish, and the cells in the logarithmic growth phase were inoculated into a 96-well plate in a certain number (3000-10000 cells/well), 100 μL per well, and then the plate was put in an 5% CO2 incubator at 37° C., to allow the cells to adhere. After 24 h, 100 μL compound solution at a certain concentration prepared in the designated medium and ferroptosis inducer Erastin (with a final concentration of […]) were added, setting 3 replicate wells for each compound to ensure the accuracy of the results, and a negative control group, a positive control group (Fer-15 μM), a blank control group and a solvent control group were included. After addition of drugs, the plate was placed in an incubator and cultivated for 72 h. On the day of MTT experiment, MTT test solution (5 mg/mL MTT solution dissolved in physiological saline, and stored in the dark at 4° C.) was pre-prepared and 20 μL MTT solution was added to each well, then the plate was put in an incubator and continued to incubate for 2-4 h. After that, 50 μL of 20% SDS solution (dissolved in MiliiQ water, added with 1% concentrated hydrochloric acid) was added to each well and kept in an incubator overnight. On the next day, the absorbance at 570 nm was measured with a microplate reader, to calculate the inhibition rate of drugs on ferroptosis. Generally, the absorbance value of the control group should be in the range of 0.8-1.2 as a normal value.
# GraphPadPrism5 software was used to fit the change curve of inhibition rate and calculate the EC50.
row,Compound,EC50 [µM]
1,"CC(c1ccc2c(c1)Nc1ccccc1S2)c1c2ccccc2cc2ccccc12 (centres unmarked) [Compound A71, 2-(1-(anthrathen-9-yl)ethyl)-10H-phenothiazine]",0.017
2,"CC(c1ccccc1)c1ccc2c(c1)Nc1ccccc1S2 (centres unmarked) [Compound B1, 2-(1-phenylethyl)-10H-phenothiazine]",0.01
3,"C=C(c1ccc(N2CCOCC2)cc1)c1ccc2c(c1)Nc1ccccc1S2 [Compound B14, 4-(4-(1-(10H-phenothiazin-2-yl)ethenyl)phenyl)morpholine]",0.039
4,"C=C(c1ccc(N2CCOCC2)cc1)c1ccc2c(c1)Nc1ccccc1S2 [Compound B15, 4-(4-(1-(10H-phenothiazin-2-yl)ethenyl)phenyl)morpholine]",0.68

# Same assay, conditions: Homo sapiens, HT-1080, 72 h, HT1080, ferroptosis inducer Erastin, 72 h, average of three tests, read-out: EC50
row,Compound,EC50 [µM]
1,"COc1cc(C(C)c2ccc3c(c2)Nc2ccccc2S3)ccc1Cl (centres unmarked) [Compound A50, 2-(1-(4-chloro-3-methoxylphenyl)ethyl)-10H-phenothiazine]",0.025
2,"COc1cc(C(C)c2ccc3c(c2)Nc2ccccc2S3)ccc1F (centres unmarked) [Compound A51, 2-(1-(4-fluoro-3-methoxylphenyl)ethyl)-10H-phenothiazine]",0.022
3,"Cc1ccc(C(C)c2ccc3c(c2)Nc2ccccc2S3)cc1[N+](=O)[O-] (centres unmarked) [Compound A52, 2-(1-(4-methyl-3-nitrophenyl)ethyl)-10H-phenothiazine]",0.013
4,"COC(=O)c1ccc(C(C)c2ccc3c(c2)Nc2ccccc2S3)cc1Cl (centres unmarked) [Compound A53, 4-(1-(10H-phenothiazin-2-yl)ethyl)-2-chlorobenzoic acid methyl ester]",0.02
5,"Cc1cc(C(C)c2ccc3c(c2)Nc2ccccc2S3)ccc1OCc1ccccc1 (centres unmarked) [Compound A54, 2-(1-(4-(benzyloxyl)-3-methylphenyl)ethyl)-10H-phenothiazine]",0.068
6,"CC(c1ccc2c(c1)Nc1ccccc1S2)c1ccc(F)c(OCc2ccccc2)c1 (centres unmarked) [Compound A55, 2-(1-(3-(benzyloxyl)-4-fluorophenyl)ethyl)-10H-phenothiazine]",0.059
7,"CC(c1cc(F)cc(F)c1)c1ccc2c(c1)Nc1ccccc1S2 (centres unmarked) [Compound A56, 2-(1-(3,5-difluorophenyl)ethyl)-10H-phenothiazine]",0.019
8,"CC(c1cc(Cl)cc(Cl)c1)c1ccc2c(c1)Nc1ccccc1S2 (centres unmarked) [Compound A57, 2-(1-(3,5-dichlorophenyl)ethyl)-10H-phenothiazine]",0.018
9,"CC(c1cc(C(F)(F)F)cc(C(F)(F)F)c1)c1ccc2c(c1)Nc1ccccc1S2 (centres unmarked) [Compound A58, 2-(1-(3,5-bis(trifluoromethyl)phenyl)ethyl)-10H-phenothiazine]",0.019
10,"Cc1cc(C)cc(C(C)c2ccc3c(c2)Nc2ccccc2S3)c1 (centres unmarked) [Compound A59, 2-(1-(3,5-dimethylphenyl)ethyl)-10H-phenothiazine]",0.02
11,"COc1cc(OC)cc(C(C)c2ccc3c(c2)Nc2ccccc2S3)c1 (centres unmarked) [Compound A60, 2-(1-(3,5-dimethoxylphenyl)ethyl)-10H-phenothiazine]",0.012
12,"CCOc1cc(F)cc(C(C)c2ccc3c(c2)Nc2ccccc2S3)c1 (centres unmarked) [Compound A61, 2-(1-(3-ethoxyl-5-fluorophenyl)ethyl)-10H-phenothiazine]",0.034
13,"Cc1cc(Cl)cc(C(C)c2ccc3c(c2)Nc2ccccc2S3)c1 (centres unmarked) [Compound A62, 2-(1-(3-chloro-5-methylphenyl)ethyl)-10H-phenothiazine]",0.024
14,"COC(=O)c1cc(F)cc(C(C)c2ccc3c(c2)Nc2ccccc2S3)c1 (centres unmarked) [Compound A63, 3-(1-(10H-phenothiazin-2-yl)ethyl)-5-fluorobenzoic acid methyl ester]",0.031
15,"CC(c1cc(F)cc(OCc2ccccc2)c1)c1ccc2c(c1)Nc1ccccc1S2 (centres unmarked) [Compound A64, 2-(1-(3-(benzyloxyl)-5-fluorophenyl)ethyl)-10H-phenothiazine]",0.064
16,"CC(c1ccc2c(c1)Nc1ccccc1S2)c1ccc2c(c1)OCCO2 (centres unmarked) [Compound A65, 2-(1-(2,3-dihydrobenzo[b][1,4]dioxa-6-yl)ethyl)-10H-phenothiazine]",0.008
17,"CC(c1ccc2c(c1)Nc1ccccc1S2)c1cccc2c1COCO2 (centres unmarked) [Compound A66, 2-(1-(benzo[d][1,3]dioxin-5-yl)ethyl)-10H-phenothiazine]",0.005
18,"CC(c1ccc2c(c1)Nc1ccccc1S2)c1cc2ccccc2o1 (centres unmarked) [Compound A67, 2-(1-(benzofuran-2-yl)ethyl)-10H-phenothiazine]",0.016
19,"CC(c1ccc2c(c1)Nc1ccccc1S2)c1ccc2ccccc2c1 (centres unmarked) [Compound A68, 2-(1-(naphthalen-2-yl)ethyl)-10H-phenothiazine]",0.005
20,"COc1ccc2cc(C(C)c3ccc4c(c3)Nc3ccccc3S4)ccc2c1 (centres unmarked) [Compound A69, 2-(1-(6-methoxylnaphthalen-2-yl)ethyl)-10H-phenothiazine]",0.003
21,"CCOc1ccc2cc(C(C)c3ccc4c(c3)Nc3ccccc3S4)ccc2c1 (centres unmarked) [Compound A70, 2-(1-(6-ethoxylnaphthalen-2-yl)ethyl)-10H-phenothiazine]",0.018
22,"CC(c1ccc2c(c1)CCO2)c1ccc2c(c1)Nc1ccccc1S2 (centres unmarked) [Compound A72, 2-(1-(2,3-dihydrobenzofuran-5-yl)ethyl)-10H-phenothiazine]",0.014

row,Compound,EC50 [µM]
1,"CC(c1cncc(C#N)c1)c1ccc2c(c1)Nc1ccccc1S2 (centres unmarked) [Compound A73, 5-(1-(10H-phenothiazin-2-yl)ethyl)nicotinonitrile]",0.005
2,"Cc1cc(C(C)c2ccc3c(c2)Nc2ccccc2S3)ccn1 (centres unmarked) [Compound A74, 2-(1-(2-methylpyridin-4-yl)ethyl)-10H-phenothiazine]",0.003
3,"CCOc1ccc(C(C)c2ccc3c(c2)Nc2ccccc2S3)cn1 (centres unmarked) [Compound A75, 2-(1-(6-ethoxylpyridin-3-yl)ethyl)-10H-phenothiazine]",0.023
4,"CC(c1ccc2c(c1)Nc1ccccc1S2)C1CCCCC1 (centres unmarked) [Compound A76, 2-(1-cyclohexylethyl)-10H-phenothiazine]",0.005
5,"C=C(c1ccc(C(=O)OC)cc1)c1ccc2c(c1)Nc1ccccc1S2 [Compound B2, methyl 4-(1-(10H-phenothiazin-2-yl)ethenyl)benzoic acid]",0.032
6,"C=C(c1ccc(C(F)(F)F)cc1)c1ccc2c(c1)Nc1ccccc1S2 [Compound B3, 2-(1-(4-(trifluoromethyl)phenyl)ethenyl)-10H-phenothiazine]",0.011
7,"C=C(c1ccc(CC)cc1)c1ccc2c(c1)Nc1ccccc1S2 [Compound B4, 2-(1-(4-ethylphenyl)ethenyl)-10H-phenothiazine]",0.023
8,"C=C(c1ccc(OC(F)(F)F)cc1)c1ccc2c(c1)Nc1ccccc1S2 [Compound B5, 2-(1-(4-trifluoromethoxylphenyl)ethenyl)-10H-phenothiazine]",0.08
9,"C=C(c1ccc(C)cc1)c1ccc2c(c1)Nc1ccccc1S2 [Compound B6, 2-(1-(p-methylphenyl)ethenyl)-10H-phenothiazine]",0.045
10,"C=C(c1ccc(CCCC)cc1)c1ccc2c(c1)Nc1ccccc1S2 [Compound B7, 2-(1-(4-butylphenyl)ethenyl)-10H-phenothiazine]",0.029
11,"C=C(c1ccc(C(C)C)cc1)c1ccc2c(c1)Nc1ccccc1S2 [Compound B8, 2-(1-(4-isopropylphenyl)ethenyl)-10H-phenothiazine]",0.04
12,"C=C(c1ccc(NC(C)=O)cc1)c1ccc2c(c1)Nc1ccccc1S2 [Compound B9, N-(4-(1-(10H-phenothiazin-2-yl)ethenyl)phenyl)acetylamine]",0.003
13,"C=C(c1ccc(NC(N)=O)cc1)c1ccc2c(c1)Nc1ccccc1S2 [Compound B10, N-(4-(1-(10H-phenothiazin-2-yl)ethenyl)phenyl)urea]",0.01
14,"C=C(c1ccc(C2CCCCC2)cc1)c1ccc2c(c1)Nc1ccccc1S2 [Compound B11, 2-(1-(4-cyclohexylphenyl)ethenyl)-10H-phenothiazine]",0.039
15,"C=C(c1ccc(CC(C)C)cc1)c1ccc2c(c1)Nc1ccccc1S2 [Compound B12, 2-(1-(4-isobutylphenyl)ethenyl)-10H-phenothiazine]",0.04
16,"C=C(c1ccc(C=O)cc1)c1ccc2c(c1)Nc1ccccc1S2 [Compound B13, 4-(1-(10H-phenothiazin-2-yl)ethenyl)benzaldehyde]",0.03
17,"C=C(c1ccc2c(c1)Nc1ccccc1S2)c1ccccc1N [Compound B16, 2-(1-(10H-phenothiazin-2-yl)ethenyl)phenylamine]",0.029
18,"C=C(c1cccc(N)c1)c1ccc2c(c1)Nc1ccccc1S2 [Compound B17, 3-(1-(10H-phenothiazin-2-yl)ethenyl)phenylamine]",0.017
19,"C=C(c1cccc(O)c1)c1ccc2c(c1)Nc1ccccc1S2 [Compound B18, 3-(1-(10H-phenothiazin-2-yl)ethenyl)phenol]",0.04
20,"C=C(c1cccc([N+](=O)[O-])c1)c1ccc2c(c1)Nc1ccccc1S2 [Compound B19, 2-(1-(3-nitrophenyl)ethenyl)-10H-phenothiazine]",0.013
21,"C=C(c1cccc(S(N)(=O)=O)c1)c1ccc2c(c1)Nc1ccccc1S2 [Compound B20, 3-(1-(10H-phenothiazin-2-yl)ethenyl)benzenesulfonamide]",0.01
